Source: patent US20060188938A1, “Compounds for inhibiting beta-amyloid production and methods of identifying the compounds” (priority 2005, published 2006)

Experiments:
[1] = tested on: β-amyloid production by 7W WT APP751 CHO cells; assay: Screening of dihydropyridine compounds of Table 2, Aβ1-40 and Aβ1-42 (Example 5); assay type: cell-based, Chinese hamster; conditions: for concentration of Aβ1-40 or Aβ1-42 compared to control: 3, 10, 30 and 100 μM, 24 hours (FIGS. 22A, 22B, 23A, 23B); for concentration of Aβ1-40 compared to control: 3 and 10 μM, 24 hours (FIG. 24)
Experimental: (§1) The 7W WT APP751 CHO cells were plated in 24-well cell culture plates in quadruplicate, containing 1 ml of culture medium, and treated with various calcium channel blocker compounds for 4 hours, 24 hours or 48 hours at 37° C. and 5% CO2. All test compounds were diluted in dimethyl sulfoxide (DMSO) before being added to the cultured confluent 7W WT APP751 CHO cells. The culture medium was collected and diluted 5-fold for the 4 hours assay and 50-fold for the 24 hour assay before being assayed by ELISAs for Aβ1-40 and Aβ1-42, respectively. Concentrations of Aβ1-40 and Aβ1-42, expressed in pg/ml, were determined using commercially available ELISAs (Biosource, CA) in a colorimetric assay using labeled antibodies detected spectrophotometrically.
The screening of dihydropyridine compounds was conducted according to the procedure described in Example 1. Each compound was added to confluent cells to a final concentration of 3, 10, 30 or 100 μM and tested. Each of these compounds was added to confluent cells to a final concentration of 3 μM (noted as “C” in FIG. 24) or 10 μM (noted as “B” in FIG. 24).

Tg APPsw mice = Tg APPsw mice given ibuprofen; cited from earlier work
[2] = tested on: β-amyloid production by 7W WT APP751 CHO cells; assay: Measurement of Aβ1-40 and Aβ1-42 by ELISA in culture medium (Example 1, calcium channel blockers); assay type: cell-based, Chinese hamster
Experimental: Chinese hamster ovary (CHO) cells, stably transfected with human APP751 (7W WT APP751 CHO cells) were used. See, e.g., Koo and Squazzo, J. Biol. Chem., Vol. 269, Issue 26, 17386-17389, July, 1994. The cells were maintained in DMEM medium supplemented with 10% fetal bovine serum and 1× mixture of penicillin/streptomycin/fungizone/glutamine mixture (Cambrex, MD) geneticin as selecting agent in 75 cm^2 cell culture flasks.
as §1
G-sec Inhib XIX, SKF 96365, 2-APB, felodipine, FPL, clotrimazole, tetrandrine, R24571, and econazole are available, as Calbiochem products from EMD Biosciences, Inc., La Jolla, Calif.; nilvadipine, nitrendipine and amlodipine (amlodipine besylate) are available, e.g., from Fujisawa, Osaka, Japan; thapsigargin, BAPTA-AM and TA9 (Tyrphostin A9) are available, e.g., as a Sigma product from Sigma-Aldrich Corp., St. Louis, Mo.; and felodipine, diltiazem, S(−)Bay K8644, R(+)Bay K8644, MRS 1845, SR 33805, loperamide, and isradipine are available from Tocris Cookson Inc., Ellisville, Mo.

[3] = 30 μM, cells plated at low density, 24 hours (FIG. 1C)
[4] = 30 μM, cells plated at low density, 48 hours (FIG. 1D)

## COCCOC(=O)C1=C(C)NC(C)=C(C(=O)OCCOC)C1c1ccccc1Cl [Example 2-19]
[1]
  concentration of Aβ1-40 or Aβ1-42 compared to control: decreased

## CCOC(=O)C1=C(C)NC(C)=C(C(=O)OCC)C1c1ccccc1Br [Example 2-23, Diethyl 4-(2-bromophenyl)-1,4-dihydro-2,6-dimethylpyridine-3,5-dicarboxylate]
[1]
  concentration of Aβ1-40 or Aβ1-42 compared to control: decreased

## CCOC(=O)C1=C(C)NC(C)=C(C(=O)OCC)C1c1ccccc1F [Example 2-27, Diethyl 4-(2-fluorophenyl)-1,4-dihydro-2,6-dimethylpyridine-3,5-dicarboxylate]
[1]
  concentration of Aβ1-40 or Aβ1-42 compared to control: decreased

## CC1=C(C(=O)OC(C)(C)C)C(c2ccccc2F)C(C(=O)OC(C)(C)C)=C(C)N1 [Example 2-28, Di-tert-butyl 4-(2-fluorophenyl)-1,4-dihydro-2,6-dimethylpyridine-3,5-dicarboxylate]
other
  melting point: 201 to 202 °C
[1]
  concentration of Aβ1-40 or Aβ1-42 compared to control: decreased

## CCOC(=O)C1=C(C)NC(C)=C(C(=O)OCC)C1c1ccccc1[N+](=O)[O-] [Example 2-29, Diethyl 1,4-dihydro-2,6-dimethyl-4-(2-nitrophenyl)pyridine-3,5-dicarboxylate]
other
  melting point: 120 to 121 °C
[1]
  concentration of Aβ1-40 or Aβ1-42 compared to control: decreased

## CC1=C(C(=O)OC(C)(C)C)C(c2ccccc2Br)C(C(=O)OC(C)(C)C)=C(C)N1 [Example 2-32, Di-tert-butyl 4-(2-bromophenyl)-1,4-dihydro-2,6-dimethylpyridine-3,5-dicarboxylate]
[1]
  concentration of Aβ1-40 or Aβ1-42 compared to control: decreased

## CC1=C(C(=O)OC(C)(C)C)C(c2ccccc2[N+](=O)[O-])C(C(=O)OC(C)(C)C)=C(C)N1 [Example 2-33, Di-tert-butyl 1,4-dihydro-2,6-dimethyl-4-(2-nitrophenyl)pyridine-3,5-dicarboxylate]
[1]
  concentration of Aβ1-40 or Aβ1-42 compared to control: decreased

## CCOC(=O)C1=C(C)NC(C)=C(C(=O)OCC)C1c1cccc(F)c1F [Example 3-22]
[1]
  concentration of Aβ1-40 compared to control: decreased

## CC1=C(C(=O)OC(C)(C)C)C(c2cccc(F)c2F)C(C(=O)OC(C)(C)C)=C(C)N1 [Example 3-23]
[1]
  concentration of Aβ1-40 compared to control: decreased

## CCOC(=O)C1=C(C)NC(C)=C(C(=O)OCC)C1c1ccc(Br)cc1F [Example 3-33]
[1]
  concentration of Aβ1-40 compared to control: decreased

## CC1=C(C(=O)OC(C)(C)C)C(c2ccc(Br)cc2F)C(C(=O)OC(C)(C)C)=C(C)N1 [Example 3-34, Di-tert-butyl 4-(4-bromo-2-fluorophenyl)-1,4-dihydro-2,6-dimethylpyridine-3,5-dicarboxylate]
[1]
  concentration of Aβ1-40 compared to control: decreased

## COCCOC(=O)C1=C(C)NC(C)=C(C(=O)OCCOC)C1c1cccc(Br)c1 [Example 3-37]
[1]
  concentration of Aβ1-40 compared to control: decreased

## COCCOC(=O)C1=C(C)NC(C)=C(C(=O)OCCOC)C1c1ccc(Br)cc1 [Example 3-38, Bis(2-methoxyethyl) 4-(4-bromophenyl)-1,4-dihydro-2,6-dimethylpyridine-3,5-dicarboxylate]
[1]
  concentration of Aβ1-40 compared to control: decreased

## CCOC(=O)C1=C(C)NC(C)=C(C(=O)OCC)C1c1cc(Br)ccc1F [Example 3-41, Diethyl 4-(5-bromo-2-fluorophenyl)-1,4-dihydro-2,6-dimethylpyridine-3,5-dicarboxylate]
[1]
  concentration of Aβ1-40 compared to control: decreased

## CC1=C(C(=O)OC(C)(C)C)C(c2cc(Br)ccc2F)C(C(=O)OC(C)(C)C)=C(C)N1 [Example 3-42]
[1]
  concentration of Aβ1-40 compared to control: decreased

## CC(C)Cc1ccc(C(C)C(=O)O)cc1 (centres unmarked) [ibuprofen]
Tg APPsw mice
  β-amyloid deposits, astrocytosis, and dystrophic neurites: reduction

## COC(=O)C1=C(C#N)NC(C)=C(C(=O)OC(C)C)C1c1cccc([N+](=O)[O-])c1 (centres unmarked) [nilvadipine]
[2]; 30 μM (FIG. 3)
  concentration of Aβ1-40 compared to controls: significantly decreased
  concentration of total β-amyloid compared to controls: significantly decreased
[2]; 30 μM, 24 hours (FIG. 1B)
  concentration of Aβ1-40 compared to controls: significantly decreased
[2]; [3]
  concentration of Aβ1-40 compared to controls: significantly decreased
[2]; [4]
  concentration of Aβ1-40 compared to controls: significantly decreased

## CCOC(=O)C1=C(C)NC(C)=C(C(=O)OC)C1c1cccc([N+](=O)[O-])c1 (centres unmarked) [nitrendipine]
[2]; 30 μM (FIG. 3)
  concentration of Aβ1-40 compared to controls: significantly decreased
  concentration of total β-amyloid compared to controls: significantly decreased
[2]; [3]
  concentration of Aβ1-40 compared to controls: significantly decreased
[2]; [4]
  concentration of Aβ1-40 compared to controls: significantly decreased

## COc1ccc2cc1Oc1ccc(cc1)C[C@H]1c3cc(c(OC)cc3CCN1C)Oc1c(OC)c(OC)cc3c1[C@H](C2)N(C)CC3 [tetrandine, tetrandrine]
[2]; 5 μM (FIG. 4)
  concentration of Aβ1-40 compared to controls: significantly decreased
  concentration of total β-amyloid compared to controls: significantly decreased
[2]; 10 μM (FIG. 4)
  concentration of Aβ1-40 compared to controls: significantly decreased
  concentration of total β-amyloid compared to controls: significantly decreased
[2]; 20 μM (FIG. 4)
  concentration of Aβ1-40 compared to controls: significantly decreased
  concentration of total β-amyloid compared to controls: significantly decreased
[2]; 30 μM (FIG. 4)
  concentration of Aβ1-40 compared to controls: significantly decreased
  concentration of total β-amyloid compared to controls: significantly decreased

## CC(C)(C)c1cc(C=C(C#N)C#N)cc(C(C)(C)C)c1O [tyrphostin A9]
[2]; 20 μM (FIG. 2)
  concentration of Aβ1-40 compared to controls: significantly decreased
  concentration of Aβ1-42 compared to controls: significantly decreased
  concentration of total β-amyloid compared to controls: significantly decreased
